Experiments:
Format in all cases: in vivo, C57BL/6J mice
NAFLD-induced mice [1] = test: NAFLD activity score (NAS) in mouse model of NAFLD induced by STZ administration and high-fat diet (Example 3); conditions: 10 mg/kg; for Steatosis Score 0 (number of mice): score 0 = <5%; for Hepatocyte Ballooning Score 0 (number of mice): score 0 = None; for Steatosis Score 1 (number of mice): score 1 = 5% to 33%; for Lobular Inflammation Score 1 (number of mice): score 1 = <2 Foci/200×; for Hepatocyte Ballooning Score 1 (number of mice): score 1 = Some balloon cells; for Lobular Inflammation Score 2 (number of mice): score 2 = 2 to 4 Foci/200×; for Lobular Inflammation Score 3 (number of mice): score 3 = >4 Foci/200×
Procedure: Two-day-old C57BL/6J mice were administered with streptozotocin (STZ, 200 μg). Since the time the mice were 5 weeks old, they were supplied with a high-fat diet (60% fat) so as to induce NAFLD. The mouse model is an experimental animal model that is known to be capable of inducing diseases ranging from diabetes, fatty liver, steatohepatitis, liver fibrosis, to liver cancer within a short period of time of 20 weeks of age. Specifically, since the time the mice were 6 weeks old, they were orally administered with vehicle (0.5% hydroxypropyl methylcellulose+0.1% Tween 80) or Compound 1, which were prepared at various concentrations, at each concentration of 1 mg/kg, 3 mg/kg, and 10 mg/kg for 4 weeks, and the livers were removed by autopsy on the final day of the test. Parts of the removed livers were fixed in a 10% formalin solution for histopathology and tissue slides were prepared therefrom and subjected to H&E staining, whereas other parts of the removed livers were used for qRT-PCR analysis. The steatosis scores and relative mRNA expression levels were calculated in the same manner as in Example 1, and the results are shown in FIGS. 3 and 4, respectively. The calculated results were expressed in mean and standard deviation, and the significance of statistical differences between the groups was confirmed using Student's t-test (*; p<0.05).
As in Example 2, vehicle or Compound 1 at a dose of 10 mg/kg was administered to the animal model in which NAFLD was induced by STZ administration and a high-fat diet. […] Additionally, two comparative groups were prepared by administering each of obeticholic acid (OCA, product name: Ocaliva) and compound A (having the same mechanism of action with Compound 1) at a dose of 10 mg/kg each, instead of vehicle or Compound 1. NAS values were respectively calculated for Normal group, the vehicle group, Compound 1 (10 mg/kg) group, and the two comparative groups (OCA-administered and compound A-administered groups), as shown in Table 2. NAS represents the sum of the scores for respective symptoms, i.e., steatosis, lobular inflammation, and hepatocyte ballooning, and the scoring for each symptom was based on the criteria described in Table 1 below. Each group consisted of 8 mice, and the NAS value is defined as the sum of the mean scores from each symptom. As NAS value is higher, NAFLD is more severe. For example, when NAS value is 3 to 4 points, the mouse can be suspected to have non-alcoholic steatohepatitis (NASH), whereas when NAS value is 5 points or higher, the mouse can be determined to have NASH.

[2] = tested on: expression levels of the gene (mRNA) associated with lipid synthesis, inflammation, and fibrosis; test: Liver mRNA expression by qRT-PCR in mouse model of NAFLD induced by STZ administration and high-fat diet (Example 2); conditions: oral, 1 mg/kg, 3 mg/kg, and mg/kg for 4 weeks; vs Control group; FIG. 4
Procedure: (§1) Furthermore, the relative expression level of mRNA in Normal group was calculated by qRT-PCR. Specifically, the mRNA expression levels of Srebp1 (i.e., a gene marker associated with lipid synthesis), and TIMP1 and Col1a1 (i.e., gene markers associated with fibrosis), etc. were measured through the SYBR-green RT-PCR analysis of the removed liver tissues described above, and the relative expression levels were calculated based on those of Normal group and are shown in FIG. 2. The calculated data were expressed in mean and standard deviation, and the significance of statistical differences between groups was confirmed using Student's t-test (*; p<0.05).
(§2) Two-day-old C57BL/6J mice were administered with streptozotocin (STZ, 200 μg). Since the time the mice were 5 weeks old, they were supplied with a high-fat diet (60% fat) so as to induce NAFLD. […] The steatosis scores and relative mRNA expression levels were calculated in the same manner as in Example 1, and the results are shown in FIGS. 3 and 4, respectively. The calculated results were expressed in mean and standard deviation, and the significance of statistical differences between the groups was confirmed using Student's t-test (*; p<0.05).

NAFLD-induced mice [3] = test: Degree of liver fibrosis by Sirius Red staining in STZ and high-fat diet NAFLD mouse model (Example 3); conditions: 10 mg/kg; fibrosis area increased by NASH induction; FIG. 6
Procedure: as §2, with “NAFLD. The mouse model is an experimental animal model that is known to be capable of inducing diseases ranging from diabetes, fatty liver, steatohepatitis, liver fibrosis, to liver cancer within a short period of time of 20 weeks of age.” for “NAFLD.”
As in Example 2, vehicle or Compound 1 at a dose of 10 mg/kg was administered to the animal model in which NAFLD was induced by STZ administration and a high-fat diet. […] NAS values were respectively calculated for Normal group, the vehicle group, Compound 1 (10 mg/kg) group, and the two comparative groups (OCA-administered and compound A-administered groups), as shown in Table 2. […] For example, when NAS value is 3 to 4 points, the mouse can be suspected to have non-alcoholic steatohepatitis (NASH), whereas when NAS value is 5 points or higher, the mouse can be determined to have NASH. […]

NAFLD-induced mice [4] = test: Steatosis score (H&E histology) in mouse model of NAFLD induced by high-fat high-cholesterol diet and fructose drinking water (Example 1); conditions: high-fat high-cholesterol diet containing 0.016% of compound for 12 weeks; vs Control group; FIG. 1
Source text: (§3) Eight-week-old C57BL/6J mice were supplied with a high-fat high-cholesterol diet (60% fat and 0.5% cholesterol) and drinking water containing 4.2% fructose for 16 weeks so as to induce non-alcoholic fatty liver disease (NAFLD).
(§4) After the supply of a high-fat high-cholesterol diet for 4 weeks, the diet was replaced with another high-fat high-cholesterol diet prepared to contain Compound 1 at a concentration of 0.016% and supplied for an additional 12 weeks, and the livers were removed by autopsy on the final day of the test. Parts of the removed livers were fixed in a 10% formalin solution for histopathology and tissue slides were prepared therefrom and subjected to H&E staining, whereas other parts of the removed livers were used for quantitative real-time PCR (qRT-PCR) analysis.
The normal mice (not induced with NAFLD, denoted by “Normal” in drawings) and the mice induced with NAFLD using a high-fat high-cholesterol diet and fructose-containing drinking water (denoted by “Control” in drawings) were used as the control group. […]

[5] = tested on: mRNA expression levels of Srebp1, TIMP1 and Col1a1 in liver tissues; test: Liver mRNA expression by qRT-PCR in mouse model of NAFLD induced by high-fat high-cholesterol diet (Example 1); conditions: 0.016% in diet, 12 weeks; vs Control group; relative to Normal group; FIG. 2
Source text: as §3, §4, §1

NAFLD-induced mice [6] = test: Steatosis score in mouse model of NAFLD induced by STZ administration and high-fat diet (Example 2); conditions: oral, FIG. 3
Procedure: The normal mice (not induced with NAFLD, denoted by “Normal” in drawings) and the mice induced with NAFLD using a high-fat high-cholesterol diet and fructose-containing drinking water (denoted by “Control” in drawings) were used as the control group. Specifically, histological scoring was performed in the same manner as in the clinical pathology scoring as follows: score 0 when the area occupied by fat in the liver tissue is less than 5%, score 1 when the area occupied by fat in the liver tissue is 5% to 33%, score 2 when the area occupied by fat in the liver tissue is 34% to 66%, and score 3 when the area occupied by fat in the liver tissue exceeds 66%.
as §2

[7] = Blood lipid levels in STZ and high-fat diet NAFLD mouse model (Example 4); conditions: 1 mg/kg, 3 mg/kg, and 10 mg/kg; compared to vehicle administered group; FIG. 7
Procedure: as §2, with “NAFLD. The mouse model is an experimental animal model that is known to be capable of inducing diseases ranging from diabetes, fatty liver, steatohepatitis, liver fibrosis, to liver cancer within a short period of time of 20 weeks of age.” for “NAFLD.”
Blood specimens were secured before autopsy by collecting blood samples from an experimental animal model prepared as in Example 2, in which NAFLD was induced by administering STZ and supplying a high-fat diet, and to which Compound 1 was administered at doses of 1 mg/kg, 3 mg/kg, and 10 mg/kg. The obtained blood samples were centrifuged to separate blood plasma, and the remaining samples were analyzed for blood lipid levels (e.g., levels of total cholesterol, high-density lipoprotein (HDL), and low-density lipoprotein (LDL)) using a biochemical analyzer (Hitachi 7100), and the results are shown in FIG. 7. […]

| SMILES | Steatosis Score 0 (number of mice) (NAFLD-induced mice [1]; n=8 mice per group) | Hepatocyte Ballooning Score 0 (number of mice) (NAFLD-induced mice [1]; n=8 mice per group) | Steatosis Score 1 (number of mice) (NAFLD-induced mice [1]; n=8 mice per group) | Lobular Inflammation Score 1 (number of mice) (NAFLD-induced mice [1]; n=8 mice per group) | Hepatocyte Ballooning Score 1 (number of mice) (NAFLD-induced mice [1]; n=8 mice per group) | Lobular Inflammation Score 2 (number of mice) (NAFLD-induced mice [1]; n=8 mice per group) | Lobular Inflammation Score 3 (number of mice) (NAFLD-induced mice [1]; n=8 mice per group) | expression levels of the gene (mRNA) associated with lipid synthesis, inflammation, and fibrosis [2] | fibrosis area (Sirius Red positive area) (NAFLD-induced mice [3]) | steatosis score (NAFLD-induced mice [4]) | NAS (NAFLD activity score) (NAFLD-induced mice [1]; compared to comparative groups OCA and Compound A at identical dose, FIG. 5) | Hepatocyte Ballooning Score 2 (number of mice) (NAFLD-induced mice [1]; n=8 mice per group, score 2 = Many cells/Prominent ballooning) | mRNA level of Col1a1 (liver) [5] | mRNA level of Srebp1 (liver) [5] | mRNA level of TIMP1 (liver) [5] | steatosis score (NAFLD-induced mice [6]; 1 mg/kg, 3 mg/kg and 10 mg/kg for 4 weeks, vs vehicle Control group) | steatosis score (NAFLD-induced mice [6]; dose of 1 mg/kg for 4 weeks, vs vehicle) | blood level of HDL [7] | blood level of LDL [7] |
| --- | --- | --- | --- | --- | --- | --- | --- | --- | --- | --- | --- | --- | --- | --- | --- | --- | --- | --- | --- |
| CC[C@H]1[C@@H](O)[C@@H]2[C@H](CC[C@]3(C)[C@@H]([C@H](C)CCC(=O)O)CC[C@@H]23)[C@@]2(C)CC[C@@H](O)C[C@@H]12 [OCA, obeticholic acid, reference compound] | 2 | 4 | 6 | 1 | 4 | 5 | 2 |  |  |  |  |  |  |  |  |  |  |  |  |
| CCCCC1(CCCC)CN(c2ccc(F)cc2)c2cc(SC)c(CNCC(=O)O)cc2S(=O)(=O)C1 [Compound 1, 2-(((3,3-dibutyl-5-(4-fluorophenyl)-7-methylthio-1,1-dioxido-2,3,4,5-tetrahydrobenzo[b][1,4]thiazepin-8-yl)methyl)amino)acetic acid] | 4 | 6 | 4 | 2 | 1 | 5 | 1 | significant decreases | significant decrease in the fibrosis area | significant decrease in steatosis score close to that of Normal group | significantly reduced NAS values | 1 | remarkable decrease with statistical significance | remarkable decrease with statistical significance | remarkable decrease with statistical significance | lower steatosis scores | reduced steatosis score | higher level of HDL | lower level of LDL |

Reference: patent US11202783B2, “Use of aminoalkylbenzothiazepine derivatives” (CJ Healthcare Corporation, priority 2017, dated 2021)
